Test results: patent US20240158446A1, “CYCLIC COMPOUND HAVING SELECTIVE INHIBITORY ACTION ON KRAS OVER HRAS AND NRAS” (CHUGAI SEIYAKU KABUSHIKI KAISHA, priority 2021, published 2024)
Like-named read-outs stand apart in the source and are kept apart here. Where a SMILES comes first, the peptide text is derived from it. Bridges are numbered along the chain shown (N, C = ends). [ ]: non-standard residue; d: D form. The star is where a group is joined. hPhe(3-Cl-4-CF3) = N[C@@H](CCc1ccc(C(F)(F)F)c(Cl)c1)C(=O)O; NPrPhe(4-CF3) = CCCN[C@@H](Cc1ccc(C(F)(F)F)cc1)C(=O)O; NMeGly(cPent) = CN[C@H](C(=O)O)C1CCCC1; Pro(4,4-F2) = O=C(O)[C@@H]1CC(F)(F)CN1; Gly(cBu) = N[C@H](C(=O)O)C1CCC1; NMeD = CN[C@@H](CC(=O)O)C(=O)O; NMeL = CN[C@@H](CC(C)C)C(=O)O; Morpholide = C1CN(*)CCO1; Ac5c = NC1(C(=O)O)CCCC1; Aze = O=C(O)[C@@H]1CCN1; NcPrGly = O=C(O)CNC1CC1; Ac4c = NC1(C(=O)O)CCC1; Sar = CNCC(=O)O

Experiments:
[1] = target: GDP-bound KRAS wild-type protein (Homo sapiens, UniProt P01116); experiment: Binding to KRAS by surface plasmon resonance (SPR), Single Cycle Kinetics; settings: GDP-bound KRAS wild-type protein, read-out: KRAS KD
Chain of GDP-bound KRAS wild-type protein (P01116 whole entry): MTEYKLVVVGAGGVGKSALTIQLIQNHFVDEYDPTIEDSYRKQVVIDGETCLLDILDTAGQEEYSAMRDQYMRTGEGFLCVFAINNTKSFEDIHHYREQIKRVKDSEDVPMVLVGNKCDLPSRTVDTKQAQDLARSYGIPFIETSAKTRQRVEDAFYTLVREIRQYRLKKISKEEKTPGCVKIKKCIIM

[2] = target: GDP-bound NRAS wild-type protein (Homo sapiens, UniProt P01111); experiment: Binding to NRAS by surface plasmon resonance (SPR), Single Cycle Kinetics; settings: for NRAS/KRAS (ratio of KD value with respect to GDP-bound NRAS wild-type protein to KD value with respect to KRAS): SPR KD ratio NRAS/KRAS, class symbols; for NRAS/KRAS (ratio of KD value for NRAS to KD value for KRAS) / NRAS/KRAS (ratio of KD value with respect to NRAS to KD value with respect to KRAS): SPR, GDP-bound NRAS wild-type protein vs GDP-bound KRAS wild-type protein
Chain of GDP-bound NRAS wild-type protein (P01111 whole entry): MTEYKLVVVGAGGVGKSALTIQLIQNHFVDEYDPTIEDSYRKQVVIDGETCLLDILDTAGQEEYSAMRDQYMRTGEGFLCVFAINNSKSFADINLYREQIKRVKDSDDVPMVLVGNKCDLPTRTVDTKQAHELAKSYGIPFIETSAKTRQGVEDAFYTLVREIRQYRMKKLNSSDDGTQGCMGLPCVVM

[3] = target: GDP-bound HRAS wild-type protein (Homo sapiens, UniProt P01112); experiment: Binding to HRAS by surface plasmon resonance (SPR), Single Cycle Kinetics; settings: for HRAS/KRAS (ratio of KD value with respect to GDP-bound HRAS wild-type protein to KD value with respect to KRAS): SPR KD ratio HRAS/KRAS, class symbols; for HRAS/KRAS (ratio of KD value for HRAS to KD value for KRAS) / HRAS/KRAS (ratio of KD value with respect to HRAS to KD value with respect to KRAS): SPR, GDP-bound HRAS wild-type protein vs GDP-bound KRAS wild-type protein
Chain of GDP-bound HRAS wild-type protein (P01112 whole entry): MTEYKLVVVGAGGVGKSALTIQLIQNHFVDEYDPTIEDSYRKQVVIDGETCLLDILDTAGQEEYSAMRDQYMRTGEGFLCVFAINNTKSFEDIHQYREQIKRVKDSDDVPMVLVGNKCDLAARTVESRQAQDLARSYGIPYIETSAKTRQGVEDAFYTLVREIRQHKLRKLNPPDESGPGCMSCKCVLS

[4] = SPR Single Cycle Kinetics, 1:1 binding model

Structure (SMILES) | Kd [1, 4] | NRAS/KRAS (ratio of KD value with respect to GDP-bound NRAS wild-type protein to KD value with respect to KRAS) [2] | HRAS/KRAS (ratio of KD value with respect to GDP-bound HRAS wild-type protein to KD value with respect to KRAS) [3] | NRAS/KRAS (ratio of KD value for NRAS to KD value for KRAS) [2] | HRAS/KRAS (ratio of KD value for HRAS to KD value for KRAS) [3] | Kd ([1]; SPR, Single Cycle Kinetics) | NRAS/KRAS (ratio of KD value with respect to NRAS to KD value with respect to KRAS) [2] | HRAS/KRAS (ratio of KD value with respect to HRAS to KD value with respect to KRAS) [3]
CCC[C@H]1C(=O)N[C@@H]([C@@H](C)CC)C(=O)N(C)CC(=O)N(C)[C@H]2C/C=C\CCN(C2=O)[C@@H](Cc2ccc(C(F)(F)F)cc2)C(=O)N(C)CC(=O)N[C@@H](CCc2ccc3ccn(C)c3c2)C(=O)N2C[C@H](OCC)C[C@H]2C(=O)NC2(CC(C)(C)C2)C(=O)N(C)[C@@H](C(CC)CC)C(=O)N(C)[C@H](C(=O)N(C)C)CC(=O)N1C [PP2912] | 8.7 nM | AA (a compound having 20 or more is denoted as AA) | A (a compound having 10 or more and less than 20 is denoted as A) | – | – | – | – | –
CCCN1C(=O)[C@@H]2CCN2C(=O)CN(C2CC2)C(=O)[C@H]([C@@H](C)CC)NC(=O)[C@H](CC(C)C)N(C)C(=O)C[C@@H](C(=O)N2CCOCC2)N(C)C(=O)[C@H](C2CCCC2)N(C)C(=O)C2(CCCC2)NC(=O)[C@@H]2CCCN2C(=O)[C@H](CCc2ccc(C(F)(F)F)c(Cl)c2)NC(=O)CN(C)C(=O)[C@@H]1Cc1ccc(C(F)(F)F)cc1 [PP0273] ([NMeL]I[NcPrGly][Aze][NPrPhe(4-CF3)][Sar][hPhe(3-Cl-4-CF3)]P[Ac5c][NMeGly(cPent)][NMeD]-Morpholide; lactam N-11) | 0.56 nM | – | – | C (A compound having a KD ratio of 0.1 or more and less than 3 is denoted as C) | B (a compound having 3 or more and less than 10 is denoted as B) | – | – | –
CCCN1C(=O)CN(C)C(=O)CN(C)C(=O)[C@H](C2CCC2)NC(=O)[C@H](CC(C)C)N(C)C(=O)C[C@@H](C(=O)N2CCOCC2)N(C)C(=O)[C@H](C2CCCC2)N(C)C(=O)C2(CCCC2)NC(=O)[C@@H]2CCCN2C(=O)[C@H](CCc2ccc(C(F)(F)F)c(Cl)c2)NC(=O)CN(C)C(=O)[C@@H]1Cc1ccc(C(F)(F)F)cc1 [PP0250] ([NMeL][Gly(cBu)][Sar][Sar][NPrPhe(4-CF3)][Sar][hPhe(3-Cl-4-CF3)]P[Ac5c][NMeGly(cPent)][NMeD]-Morpholide; lactam N-11) | 0.12 nM | – | – | B (a compound having 3 or more and less than 10 is denoted as B) | C (A compound having a KD ratio of 0.1 or more and less than 3 is denoted as C) | – | – | –
C#CC[C@H]1C(=O)N[C@@H]([C@@H](C)CC)C(=O)N(C)CC(=O)N(C)[C@H]2C/C=C\CCN(C2=O)[C@@H](Cc2ccc(C(F)(F)F)cc2)C(=O)N(C)CC(=O)N[C@@H](CCc2ccc(C(F)(F)F)c(Cl)c2)C(=O)N2C[C@H](OCC)C[C@H]2C(=O)NC2(CC(C)(C)C2)C(=O)N(C)[C@@H](C2CCCC2)C(=O)N(C)[C@H](C(=O)N(C)CC)CC(=O)N1C [PP2844] | 0.12 nM | A (a compound having 10 or more and less than 20 is denoted as A) | A (a compound having 10 or more and less than 20 is denoted as A) | – | – | – | – | –
CC[C@H](C)[C@@H]1NC(=O)[C@H](COC)N(C)C(=O)C[C@@H](C(=O)N2CCOCC2)N(C)C(=O)[C@H](C2CCCC2)N(C)C(=O)C2(CCC2)NC(=O)[C@@H]2CC(F)(F)CN2C(=O)[C@H](CCc2cc(F)c(C(F)(F)F)c(F)c2)NC(=O)CN(C)C(=O)[C@H](Cc2ccc(C(F)(F)F)cc2)N2CCCCC[C@@H](C2=O)N(C)C(=O)CNC1=O [PP0861] | – | – | – | B (a compound having 3 or more and less than 10 is denoted as B) | B (a compound having 3 or more and less than 10 is denoted as B) | 0.66 nM | – | –
CCC(CC)[C@H]1C(=O)N(C)[C@H](C(=O)N(C)C)CC(=O)N(C)[C@@H](COC)C(=O)N[C@@H]([C@@H](C)CC)C(=O)N(C)CC(=O)N(C)[C@H]2C/C=C\CCN(C2=O)[C@@H](Cc2ccc(C(F)(F)F)cc2)C(=O)N(C)CC(=O)N[C@@H](CCc2ccc(C(F)(F)F)c(Cl)c2)C(=O)N2CC3(CC3)C[C@H]2C(=O)NC2(CC(C)(C)C2)C(=O)N1C [PP2965] | 0.47 nM | AA (a compound having 20 or more is denoted as AA) | A (a compound having 10 or more and less than 20 is denoted as A) | – | – | – | – | –
CC[C@H](C)[C@@H]1NC(=O)[C@H](CC(C)C)N(C)C(=O)C[C@@H](C(=O)N(C)C)N(C)C(=O)[C@H](C2CCCC2)N(C)C(=O)C2(CCC2)NC(=O)[C@@H]2CCCN2C(=O)[C@H](CCc2cc(F)c(C(F)(F)F)c(F)c2)NC(=O)CN(C)C(=O)[C@H](Cc2ccc(C(F)(F)F)cc2)N2CCCC[C@@H](C2=O)N(C)C(=O)CN(C)C1=O [PP0574] | 0.026 nM | – | – | – | – | – | C (A compound having a KD ratio of 0.1 or more and less than 3 is denoted as C) | B (a compound having 3 or more and less than 10 is denoted as B)
CCO[C@@H]1C[C@H]2C(=O)NC3(CC(C)(C)C3)C(=O)N(C)[C@@H](C3CCCC3)C(=O)N(C)[C@H](C(=O)N(C)CC)CC(=O)N(C)[C@H]3CCCCCCc4ccc(cc4)C[C@@H](C(=O)N(C)CC(=O)N[C@@H](CCc4ccc(C(F)(F)F)c(OC)c4)C(=O)N2C1)N1CC/C=C\C[C@@H](C1=O)N(C)C(=O)CN(C)C(=O)[C@H]([C@@H](C)CC)NC3=O [PP2260, (1S,7S,11R,13S,19S,22S,26S,29S,35S,37Z)-19-cyclopentyl-11-ethoxy-N-ethyl-7-[2-[3-methoxy-4-(trifluoromethyl)phenyl]ethyl]-N,3,3′,3′,18,21,25,31,34-nonamethyl-29-[(1S)-1-methylpropyl]-2,5,8,14,17,20,24,27,30,33,55-undecaoxo-spiro[3,6,9,15,18,21,25,28,31,34,41-undecazapentacyclo[24.15.11.2^43,46.1^35,41.0^9,13]pentapentaconta-37,43(54),44,46(53)-tetraene-16,1′-cyclobutane]-22-carboxamide] | – | – | – | A (a compound having 10 or more and less than 20 is denoted as A) | A (a compound having 10 or more and less than 20 is denoted as A) | 0.12 nM | – | –
CCO[C@@H]1C[C@H]2C(=O)NC3(CC(C)(C)C3)C(=O)N(C)[C@@H](C3CCCC3)C(=O)N(C)[C@H](C(=O)N(C)CC)CC(=O)N(C)[C@@H](CC)C(=O)N[C@@H]([C@@H](C)CC)C(=O)N(C)CC(=O)N(C)[C@H]3C/C=C\CCN(C3=O)[C@@H](Cc3ccc(C(F)(F)F)cc3)C(=O)N(C)CC(=O)N[C@@H](CCc3ccc(Cl)c(Cl)c3)C(=O)N2C1 [PP2822] | 0.26 nM | A (a compound having 10 or more and less than 20 is denoted as A) | A (a compound having 10 or more and less than 20 is denoted as A) | – | – | – | – | –
CCCN(C)C(=O)[C@@H]1CC(=O)N(C)[C@@H](C(C)C)C(=O)N[C@@H]([C@@H](C)CC)C(=O)N(C)CC(=O)N(C)[C@H]2C/C=C\CCN(C2=O)[C@@H](Cc2ccc(C(F)(F)F)cc2)C(=O)N(C)CC(=O)N[C@@H](CCc2cc(F)c(C(F)(F)F)c(F)c2)C(=O)N2C[C@@H](C)C[C@H]2C(=O)NC2(CCC2)C(=O)N(C)[C@@H](C2CCCC2)C(=O)N1C [PP2079] | – | – | – | A (a compound having 10 or more and less than 20 is denoted as A) | A (a compound having 10 or more and less than 20 is denoted as A) | 0.29 nM | – | –
CC[C@H](C)[C@@H]1NC(=O)[C@H](COC)N(C)C(=O)C[C@@H](C(=O)N2CCOCC2)N(C)C(=O)[C@H](C2CCCC2)N(C)C(=O)C2(CCC2)NC(=O)[C@@H]2CCCN2C(=O)[C@H](CCc2cc(F)c(C(F)(F)F)c(F)c2)NC(=O)CN(C)C(=O)[C@H](Cc2ccc(C(F)(F)F)cc2)N2CCCCC[C@@H](C2=O)N(C)C(=O)[C@@H]2CCN2C1=O [PP0865] | – | – | – | B (a compound having 3 or more and less than 10 is denoted as B) | B (a compound having 3 or more and less than 10 is denoted as B) | 1.1 nM | – | –
CCCN1C(=O)CN(C)C(=O)CNC(=O)[C@H]([C@@H](C)CC)NC(=O)[C@H](CC(C)C)N(C)C(=O)C[C@@H](C(=O)N(C)C)N(C)C(=O)[C@H](C2CCCC2)N(C)C(=O)C2(CCC2)NC(=O)[C@@H]2CC(F)(F)CN2C(=O)[C@H](CCc2ccc(C(F)(F)F)c(Cl)c2)NC(=O)CN(C)C(=O)[C@@H]1Cc1ccc(C(F)(F)F)cc1 [PP0420] ([NMeL]IG[Sar][NPrPhe(4-CF3)][Sar][hPhe(3-Cl-4-CF3)][Pro(4,4-F2)][Ac4c][NMeGly(cPent)][NMeD]-NMe2; lactam N-11) | 0.034 nM | – | – | – | – | – | B (a compound having 3 or more and less than 10 is denoted as B) | C (A compound having a KD ratio of 0.1 or more and less than 3 is denoted as C)
